Drawing on patent publication US20250340563A1, “FUSED PYRIDAZINE DERIVATIVES AS NLRP3 INHIBITORS” (Takeda Pharmaceutical Company Limited, priority 2022, published 2025), this text covers IC50 for 33 compounds.

A value given as a limit tells only on which side of the number the result lay.

One assay addresses NLRP3 inflammasome (Homo sapiens, UniProt Q96P20). Nature of the assay: IL-1β assay in IFN-γ-differentiated, LPS-primed, ATP-activated THP-1 cells (ELISA). The note with it: 50 ng/mL LPS priming, 2.5 mM ATP activation, 2 hours. In kind it is cell-based. Summed up: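 THP-1 cells differentiated with 25 ng/mL IFN-γ for 24 h, then primed with 50 ng/mL LPS for 24 h in serum-free medium. After 30 min compound preincubation (1:3.16 dilution series), inflammasome activated with 2.5 mM ATP for 2 h at 37 °C. Supernatant IL-1β measured by ELISA; IC50 from logistic fit of % inhibition.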

A further assay concerns NF-κB pathway. Nature of the assay: TNF-α assay in IFN-γ-differentiated, LPS-stimulated THP-1 cells (ELISA). In kind it is cell-based. The conditions noted are these: Homo sapiens, 50 ng/mL LPS, 3 hours. The procedure: Monocytic THP-1 cells (ATCC: TIB-202) are maintained in accordance with the provider's instructions in RPMI media (Life Technologies, Cat #A10491-01); RPMI is supplemented with 10% heat inactivated fetal bovine serum (Hyclone Cat #SH30396.03). The cells are differentiated into macrophages by the addition of 25 ng/mL IFN-γ for 24 hours at 37° C./5% CO2. Media is exchanged with fresh media with no FBS. The cells are plated at 40,000 cells per well in 384-well flat-bottom cell culture plates (Costar 3764) containing compounds (added in 1:1000) in a 1:3.16 serial dilution series in DMSO and are incubated for 30 minutes at 37° C./5% CO2. The NF-κB pathway is activated with the addition of 50 ng/mL LPS and the cells are incubated for 3 hours at 37° C./5% CO2. At the end of the incubation period, supernatant (40 μL) is removed, and […] are monitored using an ELISA (Human TNF-α ELISA, R&D systems, Cat #DY210) according to the manufacturer's instructions.
The IC50 values are calculated from a plot of percentage of inhibition versus the inhibitor concentration by a logistics curve fit according to: Y=[Bottom+(Top−Bottom)]/(1+10^[(Log IC50−X)·Hill Slope], where Y is the % inhibition at the inhibitor concentration, X, “Bottom” is the lowest inhibition value, i.e. 0%, “Top” is the maximum inhibition value, i.e. 100%, and the “Hill Slope” describes the slope of the sigmoidal curve between the “Bottom” and “Top” values. The curve fitting was conducted with internally developed software.

NLRP3 inflammasome, sequence (Q96P20 whole entry): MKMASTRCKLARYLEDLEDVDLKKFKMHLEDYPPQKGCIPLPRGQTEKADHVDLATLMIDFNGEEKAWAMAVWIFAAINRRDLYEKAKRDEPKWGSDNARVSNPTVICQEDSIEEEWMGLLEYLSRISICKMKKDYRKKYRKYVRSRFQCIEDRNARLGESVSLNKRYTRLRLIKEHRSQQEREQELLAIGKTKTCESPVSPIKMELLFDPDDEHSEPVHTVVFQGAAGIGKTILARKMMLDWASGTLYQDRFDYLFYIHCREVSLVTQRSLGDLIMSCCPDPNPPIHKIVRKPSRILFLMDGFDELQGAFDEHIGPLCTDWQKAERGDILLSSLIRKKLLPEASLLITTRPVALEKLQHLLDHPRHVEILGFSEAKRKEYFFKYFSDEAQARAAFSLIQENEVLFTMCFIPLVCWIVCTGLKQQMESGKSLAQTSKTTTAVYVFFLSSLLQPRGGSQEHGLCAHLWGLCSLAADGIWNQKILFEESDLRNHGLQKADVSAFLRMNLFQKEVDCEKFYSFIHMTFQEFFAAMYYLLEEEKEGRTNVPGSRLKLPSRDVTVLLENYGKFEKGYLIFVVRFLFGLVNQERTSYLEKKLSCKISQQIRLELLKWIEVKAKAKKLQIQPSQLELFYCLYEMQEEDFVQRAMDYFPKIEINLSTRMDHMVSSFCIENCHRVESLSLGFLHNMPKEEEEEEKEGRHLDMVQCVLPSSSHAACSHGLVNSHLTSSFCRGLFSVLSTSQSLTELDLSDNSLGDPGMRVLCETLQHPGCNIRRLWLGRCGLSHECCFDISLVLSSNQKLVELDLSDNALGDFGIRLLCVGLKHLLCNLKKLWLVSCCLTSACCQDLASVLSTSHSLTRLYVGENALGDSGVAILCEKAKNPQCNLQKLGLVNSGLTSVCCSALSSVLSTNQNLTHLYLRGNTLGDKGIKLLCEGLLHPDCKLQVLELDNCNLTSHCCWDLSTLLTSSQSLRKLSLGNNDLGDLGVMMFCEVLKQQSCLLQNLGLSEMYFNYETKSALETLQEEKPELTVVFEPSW

Turning to `COc1cc2c(-c3ccc(Cl)cc3)nnc(NC3CCCN(C)C3)c2cn1` (stereo not drawn) [Example 83, 1-(4-chlorophenyl)-7-methoxy-N-(1-methylpiperidin-3-yl)pyrido[3,4-d]pyridazin-4-amine], the IC50 against NLRP3 inflammasome is 0.082 µM; in the assay on NF-κB pathway, more than 30 µM.
Take `CN1CCCC(Nc2nnc(-c3ccc(Cl)cc3)c3ccccc23)C1` (stereo not drawn) [Example 113, 4-(4-chlorophenyl)-N-(1-methylpiperidin-3-yl)phthalazin-1-amine]: the values for the IC50 against NLRP3 inflammasome and with NF-κB pathway were 0.047 µM and more than 30 µM, respectively.
`COc1ccc(-c2nnc(N[C@@H]3CCCN(CCF)C3)c3cnccc23)cc1` [Example 84, (R)—N-(1-(2-fluoroethyl)piperidin-3-yl)-1-(4-methoxyphenyl)pyrido[3,4-d]pyridazin-4-amine]: the IC50 on NLRP3 inflammasome was 0.079 µM; in the assay with NF-κB pathway, more than 30 µM.
In the same order, the values of `Cc1cc2c(NC3CCCN(C)C3)nnc(-c3ccc(Cl)cc3)c2cn1` (stereo not drawn) [Example 81, 4-(4-chlorophenyl)-7-methyl-N-(1-methylpiperidin-3-yl)pyrido[3,4-d]pyridazin-1-amine] are 0.067 µM and more than 30 µM.
In the same order, the values of `COc1ccc(-c2nnc(N[C@@H]3C[C@@H](F)CN(C)C3)c3ccccc23)cc1` [Example 177, N-((3R,5R)-5-fluoro-1-methylpiperidin-3-yl)-4-(4-methoxyphenyl)phthalazin-1-amine] are 0.053 µM and more than 30 µM.
Taken in the same sequence, the figures for `CN1CCC[C@@H](Nc2nnc(-c3ccc(Cl)cc3F)c3ccncc23)C1` [Example 71, (R)-1-(4-chloro-2-fluorophenyl)-N-(1-methylpiperidin-3-yl)pyrido[3,4-d]pyridazin-4-amine] were 0.046 µM and 9.55 µM.
`COc1ccc(-c2nnc(N[C@@H]3CCCN(CCF)C3)c3ccccc23)cc1` [Example 58, (R)—N-(1-(2-fluoroethyl)piperidin-3-yl)-4-(4-methoxyphenyl)phthalazin-1-amine]: the IC50 on NLRP3 inflammasome is 0.066 µM; in the assay on NF-κB pathway it was more than 30 µM.
Taken in the same sequence, the figures for `FCCN1CCCC(Nc2nnc(-c3ccc(Cl)cc3)c3ccccc23)C1` (stereo not drawn) [Example 140, 4-(4-chlorophenyl)-N-(1-(2-fluoroethyl)piperidin-3-yl)phthalazin-1-amine] were 0.075 µM and more than 30 µM.
In the same order, the values of `Oc1cccc(Nc2nnc(-c3ccc(C4CC4)cc3)c3ccccc23)c1` [Example 19, 3-((4-(4-cyclopropylphenyl)phthalazin-1-yl)amino)phenol] are 1.09 µM and 7.76 µM.
In the same order, the values of `COc1ccc(-c2nnc(N[C@@H]3C[C@@H](F)CN(C)C3)c3cnccc23)cc1` [Example 174, N-((3R,5R)-5-fluoro-1-methylpiperidin-3-yl)-1-(4-methoxyphenyl)pyrido[3,4-d]pyridazin-4-amine] are 0.159 µM and more than 30 µM.
Regarding `CCN1CCCC(Nc2nnc(-c3ccc(OC)cc3)c3ccccc23)C1` (stereo not drawn) [Example 171, N-(1-ethylpiperidin-3-yl)-4-(4-methoxyphenyl)phthalazin-1-amine], the IC50 at NLRP3 inflammasome was 0.068 µM; in the assay with NF-κB pathway it was more than 30 µM.
As for `COc1ccc(-c2nnc(N[C@@H]3CCCN(C4(C)CC4)C3)c3cnccc23)cc1` [Example 168, (R)-1-(4-methoxyphenyl)-N-(1-(1-methylcyclopropyl)piperidin-3-yl)pyrido[3,4-d]pyridazin-4-amine], the IC50 against NLRP3 inflammasome was 0.005 µM; in the assay on NF-κB pathway it was more than 30 µM.
On NLRP3 inflammasome, `CC(=O)N1CCc2c(-c3ccc(Cl)cc3)nnc(NC3CCCN(C)C3)c2C1` (stereo not drawn) [Example 105, 1-(1-(4-chlorophenyl)-4-((1-methylpiperidin-3-yl)amino)-7,8-dihydropyrido[3,4-d]pyridazin-6(5H)-yl)ethan-1-one] gave an IC50 of 0.955 µM.
Turning to `CN1CCCC(Nc2nnc(-c3ccccc3)c3ccccc23)C1` (stereo not drawn) [Example 42, N-(1-methylpiperidin-3-yl)-4-phenylphthalazin-1-amine], at NLRP3 inflammasome, inhibition was half-maximal at 1.15 µM (IC50).
Compound `CN1CCCC(Nc2nnc(-c3ccc(Cl)cc3)c3c2CN(S(C)(=O)=O)CC3)C1` (stereo not drawn) [Example 107, 1-(4-chlorophenyl)-N-(1-methylpiperidin-3-yl)-6-(methylsulfonyl)-5,6,7,8-tetrahydropyrido[3,4-d]pyridazin-4-amine] had an IC50 on NLRP3 inflammasome of 1.78 µM.
For `COc1ccc(-c2nnc(NC3CCCN(C)C3)c3cnn(C)c23)cc1` (stereo not drawn) [Example 150, 7-(4-methoxyphenyl)-1-methyl-N-(1-methylpiperidin-3-yl)-1H-pyrazolo[3,4-d]pyridazin-4-amine], on NLRP3 inflammasome, the IC50 was found to be 0.325 µM.
The same measure, in the same setting: for `CC12CCC(Nc3nnc(-c4ccc(Cl)cc4)c4ccccc34)(CO1)C2` (stereo not drawn) [Example 136, 4-(4-chlorophenyl)-N-(1-methyl-2-oxabicyclo[2.2.1]heptan-4-yl)phthalazin-1-amine] the value was 3.72 µM.
On NLRP3 inflammasome, `CC(=O)N1CCCC(Nc2nnc(-c3ccc(Cl)cc3)c3ccccc23)C1` (stereo not drawn) [Example 110, 1-(3-((4-(4-chlorophenyl)phthalazin-1-yl)amino)piperidin-1-yl)ethan-1-one] showed an IC50 of 4.48 µM.
On NLRP3 inflammasome, `CN1CCCC(N(C)c2nnc(-c3ccc(Cl)cc3)c3ccccc23)C1` (stereo not drawn) [Example 112, 4-(4-chlorophenyl)-N-methyl-N-(1-methylpiperidin-3-yl)phthalazin-1-amine] returned an IC50 of 4.25 µM. This IC50 and that of the compound before are within 1.5-fold of each other.
On to `CN1CCC[C@@H](Nc2nnc(-c3ccc4c(c3)OCCO4)c3ccncc23)C1` [Example 26, (R)-1-(2,3-dihydrobenzo[b][1,4]dioxin-6-yl)-N-(1-methylpiperidin-3-yl)pyrido[3,4-d]pyridazin-4-amine], for which it took 0.603 µM to reach half-maximal inhibition against NLRP3 inflammasome (IC50).
For the compound `CN1C[C@H](F)C[C@@H](Nc2nnc(-c3ccc(Cl)cc3)c3cnccc23)C1` [Example 175, 4-(4-chlorophenyl)-N-((3R,5R)-5-fluoro-1-methylpiperidin-3-yl)pyrido[3,4-d]pyridazin-1-amine], the IC50 against NLRP3 inflammasome was found to be 0.589 µM.
At NLRP3 inflammasome, `Cc1cc(Cl)ccc1-c1nnc(NC2CCCN(C)C2)c2cnccc12` (stereo not drawn) [Example 49, 1-(4-chloro-2-methylphenyl)-N-(1-methylpiperidin-3-yl)pyrido[3,4-d]pyridazin-4-amine] had an IC50 of 0.288 µM. This IC50 lies about 2-fold lower than the previous one.
Same read-out and setting: under `CN1CCC[C@@H](Nc2nnc(-c3ccc(OC(F)F)cc3F)c3ccncc23)C1` [Example 92, (R)-1-(4-(difluoromethoxy)-2-fluorophenyl)-N-(1-methylpiperidin-3-yl)pyrido[3,4-d]pyridazin-4-amine] stands 0.06 µM; under `Oc1cccc(Nc2nnc(-c3ccc(C4CC4)cc3F)c3ccccc23)c1` [Example 8, 3-((4-(4-cyclopropyl-2-fluorophenyl)phthalazin-1-yl)amino)phenol], 0.891 µM; under `COc1ccc(-c2nnc(NC3CCN(C)C3)c3ccccc23)cc1` (stereo not drawn) [Example 126, 4-(4-methoxyphenyl)-N-(1-methylpyrrolidin-3-yl)phthalazin-1-amine], 2.57 µM.
On the same count and under the same terms, for `COc1ccc(-c2nnc(Nc3cccc(O)c3)c3c2CCCC3)cc1` [Example 199, 3-((4-(4-methoxyphenyl)-5,6,7,8-tetrahydrophthalazin-1-yl)amino)phenol] the value was 2.75 µM; for `Clc1ccc(-c2nnc(NC3CN4CCC3CC4)c3ccccc23)cc1` (stereo not drawn) [Example 164, N-(4-(4-chlorophenyl)phthalazin-1-yl)quinuclidin-3-amine], 0.372 µM.
Still for that read-out and setting: under `COc1ccc(-c2nnc(NCC3CCCCN3C)c3ccccc23)cc1` (stereo not drawn) [Example 130, 4-(4-methoxyphenyl)-N-((1-methylpiperidin-2-yl)methyl)phthalazin-1-amine] stands 3.89 µM.
`Cc1ccc(-c2nnc(NC3CCCN(C)C3)c3ccccc23)cc1` (stereo not drawn) [Example 15, N-(1-methylpiperidin-3-yl)-4-(p-tolyl)phthalazin-1-amine] displayed an IC50 on NLRP3 inflammasome of 0.115 µM.
Same read-out and setting: for `F[C@@H]1C[C@@H](Nc2nnc(-c3ccc(Cl)cc3)c3ccccc23)CN(C2CC2)C1` [Example 54, 4-(4-chlorophenyl)-N-((3R,5R)-1-cyclopropyl-5-fluoropiperidin-3-yl)phthalazin-1-amine] the value was 1.2 µM; for `COc1ccc(-c2nnc(N[C@@H]3CCCN(C)C3)c3c2COCC3)cc1` [Example 223, (R)-4-(4-methoxyphenyl)-N-(1-methylpiperidin-3-yl)-7,8-dihydro-5H-pyrano[3,4-d]pyridazin-1-amine], 0.457 µM.
Still for that read-out and setting: for `FC(F)(F)CN1CCCC(Nc2nnc(-c3ccc(Cl)cc3)c3ccccc23)C1` (stereo not drawn) [Example 147, 4-(4-chlorophenyl)-N-(1-(2,2,2-trifluoroethyl)piperidin-3-yl)phthalazin-1-amine] the value was 1.48 µM; for `CN1CCCC(Nc2nnc(-c3ccc(C(F)(F)F)nc3)c3ccccc23)C1` (stereo not drawn) [Example 22, N-(1-methylpiperidin-3-yl)-4-(6-(trifluoromethyl)pyridin-3-yl)phthalazin-1-amine], 0.897 µM.
